Test [1] deals with A2058 cells. The test is described as follows: Chemotaxis Assay (LPA-induced migration of A2058 cells). It counts as cell-based. To be noted: Homo sapiens, 4 to 8 hours, crystal violet 590 nm. Here is the method:
For monitoring the migration of cells, Neuroprobe ChemoTx® System plates ([…], 5.7 mm diameter sites; Gaithersburg, MD, USA) were utilized. To induce cell migrations, a concentration of […] or vehicle in DMEM were loaded to the bottom chamber. A total of 15,000 A2058 cells, which were starved for 24 hr following treated with test compounds or vehicle, were then applied to the upper membrane coated with 0.001% fibronectin. The plate was incubated for 4 to 8 hours to allow cell migration. Following incubation, the plate was dissembled, and the migrated cells were visualized by crystal violet staining. The stained area with crystal violet was quantified by measuring the absorbance at 590 nm and the relative percentage of the control was calculated.

Test [2] addresses T1, hLPAR1 (Homo sapiens, UniProt Q92633).
T1 construct: expressed in transfected cells
In words: Ca2+ Flux Assay (B103 cells stably expressing hLPAR1). The test is classed as cell-based. To be noted: LPA-induced calcium release, Fura-2 AM, compound 20 min at RT. Here is the method:
B103 cells stably expressing hLPAR1 were seeded at a density of 1.0×10^5 cells per well in clear flat-bottom black 96-well plates and incubated overnight in complete media. The following day, the cells were pre-incubated in serum-free media for 2 hours prior to ensure cellular equilibration. For the loading a calcium-sensitive fluorescent dye, the cells were treated with a concentration of 5 μM Fura-2 AM dye (Sigma, F1225) in Hank's buffered salt solution (HBSS) supplemented with 20 mM HEPES, […], and 0.3% fatty-acid-free bovine serum albumin for 40 minutes at room temperature (RT). Test compounds, prepared in DMSO, were then added to each well and incubated for 20 minutes at RT. To induce calcium release, a concentration of […] in HBSS supplemented with 20 mM HEPES, and 0.3% fatty-acid-free bovine serum albumin was introduced. Intracellular calcium mobilization was subsequently quantified by monitoring the fluorescence intensity using the Spark® multimode microplate reader (TECAN).

Structures are written as SMILES.

T1 sequence (Q92633 whole entry): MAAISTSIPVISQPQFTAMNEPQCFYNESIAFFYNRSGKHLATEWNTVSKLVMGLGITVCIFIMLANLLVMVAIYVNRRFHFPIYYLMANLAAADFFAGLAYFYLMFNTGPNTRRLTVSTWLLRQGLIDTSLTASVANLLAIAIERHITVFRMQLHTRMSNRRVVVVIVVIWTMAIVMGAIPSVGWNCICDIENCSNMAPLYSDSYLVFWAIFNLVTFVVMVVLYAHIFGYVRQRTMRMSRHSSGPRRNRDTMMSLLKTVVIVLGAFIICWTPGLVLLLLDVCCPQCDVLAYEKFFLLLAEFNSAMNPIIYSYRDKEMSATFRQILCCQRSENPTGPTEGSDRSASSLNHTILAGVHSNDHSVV

Take `Cc1noc(C2CCN(c3ccc(C4(C(=O)O)CC4)cc3)CC2)c1NC(=O)[C@H](O)c1ccccc1` [Compound 32]: the IC50 in test [1] was no less than 5000 nM; in test [2], 200 to 3000 nM.

For `Cc1nnn(C2CCN(c3ccc(C4(C(=O)NS(=O)(=O)C(F)(F)F)CC4)cc3)CC2)c1NC(=O)O[C@H](C)c1ccccc1` [Compound 15], the IC50 in test [1] lay within 500 to 5000 nM; in test [2], 200 to 3000 nM.

Turning to `Cc1nsc(C2CCN(c3ccc(C4(C(=O)O)CC4)cc3)CC2)c1NC(=O)O[C@H](C)c1ccccc1Cl` [Compound 42], the IC50 is less than 100 nM in test [1] and 10 to 200 nM in test [2].

Consider `C[C@@H](OC(=O)Nc1c(C2CCN(c3ccc(C4(C(=O)NS(=O)(=O)CC(C)(C)C(=O)O)CC4)cc3)CC2)nnn1C)c1ccccc1Cl` [Compound 40], for which the figures for the IC50 in test [1] and in test [2] were 100 to 500 nM and 10 to 200 nM, respectively.

For `Cc1noc(C2CCN(c3ccc(C4(C(=O)O)CC4)cc3)CC2)c1NC(=O)O[C@H](C)c1ccccc1C(C)(C)F` [Compound 30], the IC50 was 500 to 5000 nM in test [1] and 10 to 200 nM in test [2].

For the compound `COc1c(C)cc(NC(=O)O[C@H](C)c2ccccc2)c(C2CCN(c3ccc(C4(C(=O)O)CC4)cc3)CC2)c1C` [Compound 18], the IC50 lay within 500 to 5000 nM in test [1] and 200 to 3000 nM in test [2].

With `COCc1ccccc1[C@H](C)OC(=O)Nc1c(C2CCN(c3ccc(C4(C(=O)O)CC4)cc3)CC2)nnn1C` [Compound 24, (S)-1-(4-(4-(5-(((1-(2-(methoxymethyl)phenyl)ethoxy)carbonyl)amino)-1-methyl-1H-1,2,3-triazol-4-yl)piperidin-1-yl)phenyl)cyclopropane-1-carboxylic acid], the IC50 was 100 to 500 nM in test [1] and less than 10 nM in test [2].

As for `Cc1ncnc(C2CCN(c3ccc(C4(C(=O)O)CC4)cc3)CC2)c1NC(=O)O[C@H](C)c1ccccc1` [Compound 29], the figures for the IC50 in test [1] and in test [2] were 500 to 5000 nM and 200 to 3000 nM, respectively.

On to `Cc1noc(C2CCN(c3ccc(C4(C(=O)OCc5oc(=O)oc5C)CC4)cc3)CC2)c1NC(=O)O[C@H](C)c1ccccc1` [Compound 14], for which the IC50 in test [1] was less than 100 nM; in test [2], less than 10 nM.

As for `C[C@@H](OC(=O)Nc1c(C2CCN(c3ccc(C4(C(=O)NS(=O)(=O)C5(C(=O)O)CC5)CC4)cc3)CC2)nnn1C)c1ccccc1Cl` [Compound 39, 1-[[1-[4-[4-[5-[[(1R)-1-(2-chlorophenyl)ethoxy]carbonylamino]-1-methyl-triazol-4-yl]-1-piperidyl]phenyl]cyclopropanecarbonyl]sulfamoyl]cyclopropanecarboxylic acid], the IC50 in test [1] is less than 100 nM; in test [2] it was less than 10 nM.

For the compound `COc1cc(C2(CNS(=O)(=O)CCC(=O)O)CC2)ccc1N1CCC(c2nnn(C)c2NC(=O)O[C@H](C)c2ccccc2)CC1` [Compound 3], the half-inhibitory concentration (IC50) was no less than 5000 nM in test [1] and less than 10 nM in test [2].

In the case of `Cc1noc(C2CCN(c3ccc(C4(C(=O)NS(=O)(=O)C(F)(F)C(N)=O)CC4)cc3)CC2)c1NC(=O)O[C@H](C)c1ccccc1` [Compound 66], the IC50 in test [1] was less than 100 nM; in test [2], less than 10 nM.

Consider `COc1cc(C2(C(=O)O)CC2)ccc1N1CC2(CC(c3onc(C)c3NC(=O)O[C@H](C)c3ccccc3)C2)C1` [Compound 46, 1-(3-methoxy-4-{6-[3-methyl-4-({[(1R)-1-phenylethoxy]carbonyl}amino)-1,2-oxazol-5-yl]-2-azaspiro[3.3]heptan-2-yl}phenyl)cyclopropane-1-carboxylic acid], for which the concentration for half-maximal inhibition (IC50) is 500 to 5000 nM in test [1] and less than 10 nM in test [2].

Regarding `Cc1noc(C2CCN(c3ccc(C4(C(=O)NS(=O)(=O)C5(C(=O)O)CC5)CC4)cc3)CC2)c1NC(=O)O[C@H](C)c1ccccc1` [Compound 75], the figures for the concentration for half-maximal inhibition (IC50) in test [1] and in test [2] were less than 100 nM and less than 10 nM, respectively.

Consider `C[C@@H](OC(=O)Nc1cccnc1C1CCN(c2ccc(C3(C(=O)O)CC3)cc2)CC1)c1ccccc1` [Compound 28], for which the IC50 in test [1] is 500 to 5000 nM; in test [2], 10 to 200 nM.

With `COc1ccccc1[C@@H](C)OC(=O)N(C)c1c(C)nsc1C1CCN(c2ccc(C3(C(=O)O)CC3)cc2)CC1` [Compound 44], the IC50 in test [1] lay within 100 to 500 nM; in test [2] it was 10 to 200 nM.

`Cc1noc(C2CCN(c3ccc(C4(C(=O)O)CC4)cc3)CC2)c1N(C)C(=O)O[C@H](C)c1ccccc1` [Compound 45]: the IC50 in test [1] lay in the range of 100 to 500 nM; in test [2], 10 to 200 nM.

Take `Cc1noc(C2CCN(c3ccc(C4(C(=O)O)CC4)cc3)CC2)c1NC(=O)OC(C)C1CCCCC1` (stereo not shown) [Compound 96]: the IC50 in test [1] was in the range of 500 to 5000 nM; in test [2], 10 to 200 nM.

In the case of `Cc1noc(C2CCN(c3ccc(C4(C(=O)O)CC4)cc3)CC2)c1NC(=O)N[C@H](C)c1ccccc1` [Compound 16], the IC50 in test [1] lay within 500 to 5000 nM; in test [2] it was 10 to 200 nM.

Take `Cc1nsc(C2CCN(c3ccc(C4(C(=O)O)CC4)cc3)CC2)c1NC(=O)O[C@H](C)c1ccccc1F` [Compound 43]: the IC50 in test [1] was 100 to 500 nM; in test [2], 10 to 200 nM.

As for `Cc1nnn(C2CCN(c3ccc(C4(C(=O)O)CC4)cc3)CC2)c1NC(=O)O[C@H](C)c1ccccc1Cl` [Compound 51], the figures for the IC50 in test [1] and in test [2] were 500 to 5000 nM and less than 10 nM, respectively.

With `C[C@@H](OC(=O)Nc1c(C2CCN(c3ccc(C4(C(=O)O)CC4)cc3)CC2)nnn1C)C1CCCCC1` [Compound 26, (R)-1-(4-(4-(5-(((1-cyclohexylethoxy)carbonyl)amino)-1-methyl-1H-1,2,3-triazol-4-yl)piperidin-1-yl)phenyl)cyclopropane-1-carboxylic acid], the IC50 in test [1] was 500 to 5000 nM; in test [2], less than 10 nM.

Turning to `Cc1noc(C2CCN(c3ccc(C4(C(=O)O)CC4)cc3)CC2)c1NC(=O)OC1C2C[C@H]3C[C@@H](C2)C[C@@H]1C3` (stereo partly shown) [Compound 97], the 50% inhibitory concentration (IC50) in test [1] lay within 500 to 5000 nM; in test [2] it was 200 to 3000 nM.

With `Cc1ccccc1[C@@H](C)OC(=O)Nc1c(C2CCN(c3ccc(C4(C(=O)O)CC4)cc3)CC2)cnn1C` [Compound 34], the IC50 was less than 100 nM in test [1] and 10 to 200 nM in test [2].

In the case of `CO[C@@H](C(=O)Nc1c(C)noc1C1CCN(c2ccc(C3(C(=O)O)CC3)cc2)CC1)c1ccccc1` [Compound 47], the results for the IC50 in test [1] and in test [2] were 500 to 5000 nM and 200 to 3000 nM, respectively.

For `COc1cc(C2(C(=O)O)CC2)ccc1N1CCC(c2nnn(C)c2NC(=O)O[C@H](C)c2ccccc2)CC1` [Compound 4], the values for the IC50 in test [1] and in test [2] were 500 to 5000 nM and less than 10 nM, respectively.
